Source: patent publication US20130202649A1, “ACTIVATION OF INNATE IMMUNITY FOR NUCLEAR REPROGRAMMING OF SOMATIC CELLS” (The Board of Trustees of the Leland Stanford Junior …, priority 2012, published 2013)

Experiments:
HDAC = HDAC expression (cDNA profiling, Western); assay type: cell-based, human
Description: Histone acetylation status influences the folding and functional state of the chromatin and modulates the accessibility of DNA to the transcriptional machinery for gene expression. Histone de-acetylation is generally associated with a closed chromatin state, and inhibitors of histone de-acetylase (HDAC) such as valproic acid are employed to enhance nuclear reprogramming. […] The downregulation of HDAC1 expression by poly I:C was confirmed by Western analysis (FIG. 17).
Gene Expression and Microarray Analyses RNA was isolated with the RNeasy kit. First-strand cDNA was primed with oligo(dT) primers and qPCR was performed with primer sets from Applied Biosystems. RNA probes were prepared and hybridized to Illumina HumanHT-12 v4 Expression BeadChip microarrays.
Western Blotting Proteins were extracted from BJ fibroblasts by solubilizing the cells in RIPA buffer containing 1× protease inhibitor cocktail. 25 μg of total protein was loaded and resolved on SDSpolyacrylamide gels, transferred to PVDF membranes and probed with the following primary antibodies: anti-HP1α and anti-HDAC (Cell Signaling), and β-actin (Sigma, A5441). Immunoblots were developed with enhanced chemiluminescence reagents (Amersham).

[1] = tested on: innate immune response genes (TLR3, NF-κB, IFN-β, Stat1, Stat2); experiment: Expression of innate immunity related genes; assay type: cell-based, human
Description: To gain more insight into the mechanisms by which a retroviral particle could accelerate nuclear reprogramming, we substituted a non-integrating mutant of pMX-GFP by introducing a frameshift mutation near the poi coding region of the retrovirus. This mutant can enter the cell, direct synthesis of intact virus particles that retain reverse transcriptase activity, but cannot integrate newly synthesized viral DNA into the host genome. […] Accordingly, integration of foreign DNA into the host genome is not required for the difference in gene expression between the CPPs and their corresponding viral vectors. Viral infection activates innate immunity, by virtue of interaction with Toll-like receptors (TLRs). The TLRs recognize pathogen-associated molecular patterns (PAMPs) associated with viral protein, lipopolysaccharides, DNA or RNA. We hypothesized that activation of innate immunity through TLRs may be involved in the difference in gene expression. Indeed, we observed that our retroviral vectors (but not the CPPs) activated inflammatory (innate immune response) genes, including the toll-like receptor 3 (TLR3), NF-κB, IFN-β, Stat1 and Stat2 (FIG. 11).
Treatments At 60-70% confluency, BJ fibroblast cells were serum-starved using 1% serum to induce G1 cell cycle arrest. […]

human BJ fibroblasts = experiment: Temporal target and pluripotency gene expression (qPCR) after retroviral vector, CPP or TLR3 agonist treatment; assay type: cell-based
Description: In an effort to understand and overcome this failure, we examined the temporal sequence of target gene expression in response to a retroviral construct (pMX-Sox2) versus the corresponding CPP(CPP-SOX2). We focused on validated downstream targets such as Jarid2, Zic2, and bMyb for Sox2-activated genes, as well as, downstream genes known to function in nuclear reprogramming, i.e. Nanog, Sox2 and Oct4. Human fibroblasts were synchronized by serum starvation and then subjected to either a single infection with pMX-Sox2 or daily treatments of CPP-SOX2, and gene expression was assayed over 6 days.
Viral preparation and infection HEK293FT cells were plated at 6×10^6 cells per T225 flask and incubated overnight. Cells were transfected with 10 μg of VSV-G (envelope protein), 15 μg of pUMVC (packaging plasmid) and 10 μg of gene of interest (Sox2 or Oct4) with Lipofectamine. 48 hours after transfection, the supernatant of transfectant was collected and filtered through a 0.45 μm filter. Following spinning at 17,100 rpm for 2 hr 20 min, the viral pellet was resuspended to make 100× stock solutions. Human fibroblasts were seeded at 5×10^4 cells per well of a 6-well dish a day before transduction. The medium was replaced with virus-containing supernatant supplemented with 8 μg/ml polybrene, and incubated for 24 hr.
Treatments At 60-70% confluency, BJ fibroblast cells were serum-starved using 1% serum to induce G1 cell cycle arrest. The synchronized BJ fibroblasts were then subjected to either a single infection with retroviral constructs or daily treatments with 200 nM CPPs (CPP-SOX2 or CPP-OCT4). Poly I:C (300 ng/ml) was added to the cells simultaneously with the CPPs. For experiments involving peptide inhibitors, cells were pretreated for 6 hrs at 40 uM with either MyD88 inhibitory peptide (Pepinh-MyD) or TRIF inhibitory peptide (Pepinh-TRIF) followed by CPP treatments.
Gene Expression and Microarray Analyses RNA was isolated with the RNeasy kit. First-strand cDNA was primed with oligo(dT) primers and qPCR was performed with primer sets from Applied Biosystems. […]

Polyinosinicpolycytidylic acid [Poly I:C]
expression of a suite of HDAC genes (HDAC; CPP treated human fibroblasts): downregulated
HDAC 1 protein expression (immunoblot) (HDAC; day 2 to day 6): early (day 2) and sustained (to day 6) inhibition
expression of NF-κB and TLR3 ([1]; BJ fibroblasts): sustained increase
expression of inflammatory (innate immune response) genes ([1]; human fibroblasts): induces the expression of genes involved in innate immunity
target and pluripotency gene expression (human BJ fibroblasts; agent alone, CPP 200 nM daily or single infection on Day 0, assayed over 6 days): unaffected
temporal expression of the downstream genes induced by CPP-OCT4 (human BJ fibroblasts; combined with CPP-OCT4 200 nM daily): accelerated
expression of the downstream genes induced by CPP-SOX2 (human BJ fibroblasts; combined with CPP-SOX2 200 nM daily, poly I:C 300 ng/ml): accelerated
